Data as given in patent publication US10076519B2 (CYTOKINETICS, INC., priority 2010, dated 2018).

System: rabbit skeletal myofibrils (fast skeletal myofibrils)
Assay: Activation of fast skeletal myofibrils (PUMA assay, PK/LDH-coupled ATPase at pCa25)
Type: biochemical
Summary of the method: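 ATPase activity of Triton-washed rabbit skeletal myofibrils, roughly 90% fast fibres, tracked by NADH loss at 340 nm through a PK/LDH-coupled ADP-regenerating system. Calcium set to 25% of maximal activity (pCa25), in PIPES 12 mM pH 6.8 with 2 mM MgCl2 and 1 mM DTT; AC1.4 reported.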

[1] = median AC1.4 class, procedure of Example 39
[2] = median AC1.4 reported as class, procedure of Example 39

| SMILES | Mean AC1.4 [1] | also measured |
| --- | --- | --- |
| NC(=O)c1cnc(-c2ccc(NC3(c4ccc(F)cc4)CCC3)nn2)s1 [2-(6-{[(4-fluorophenyl)cyclobutyl]ami-no}pyridazin-3-yl)-1,3-thiazole-5-carboxamide] | B (B=1-10 uM) | – |
| NC(=O)c1ccnc(C2(Nc3ccc(-c4cc(C(N)=O)ccc4F)nn3)CCC2)c1 [2-({[6-(3-carbamoyl-6-fluorophenyl)pyridazin-3-yl]amino}cyclobutyl)pyridine-4-carboxamide] | D (D=>20 uM) | – |
| CC(C)(Nc1ccc(-c2ncc(CC(N)=O)s2)nn1)c1ncccc1Cl [2-[2-(6-{[1-(3-chloro(2-pyridyl))-isopropyl]amino}pyridazin-3-yl)-1,3-thiazol-5-yl]acetamide] | – | Mean AC1.4 [2]: D (D=>20 uM) |
| CC(C)(CNc1ccc(-c2ncc(CC(N)=O)s2)nn1)c1ncccc1Cl [2-[2-(6-{[2-(3-chloro(2-pyridyl))-2-methylpropyl]amino}pyridazin-3-yl)-1,3-thiazol-5-yl]acetamide] | – | Mean AC1.4 [2]: B (B=1-10 uM) |
| CC(C)(O)c1n[nH]c2ccc(-c3ccc(NCC(C)(C)c4ccc(F)cc4)nn3)cc12 [2-[5-(6-{[2-(4-fluorophenyl)-2-methylpropyl]amino}pyridazin-3-yl)-1H-indazol-3-yl]propan-2-ol] | – | Mean AC1.4 (AC1.4 determined according to the procedure of Example 39, reported as class symbols): B (B=1-10 uM) |
| CC(C)(Nc1ccc(-c2ncc(C(N)=O)s2)nn1)c1cccc(OC(F)F)n1 [2-[6-({1-[6-(difluoromethoxy)(2-pyridyl)]-isopropyl}amino)pyridazin-3-yl]-1,3-thiazole-5-carboxamide] | B (B=1-10 uM) | – |
| Cn1cc(C(N)=O)nc1-c1ccc(NCC2(c3ncccc3F)CCC2)nn1 [2-[6-({[(3-fluoro(2-pyridyl))cyclobutyl]methyl}ami-no)pyridazin-3-yl]-1-methylimidazole-4-carboxamide] | D (D=>20 uM) | – |
| CS(=O)(=O)N1Cc2nc(-c3ccc(NCC4(c5ncccc5F)CCC4)nn3)sc2C1 [2-[6-({[(3-fluoro(2-pyridyl))cyclobutyl]methyl}ami-no)pyridazin-3-yl]-5-(methylsulfonyl)-3-pyrrolino[3,4-d]1,3-thiazole] | D (D=>20 uM) | – |
| CS(=O)(=O)N1CCc2nc(-c3ccc(NCC4(c5ncccc5F)CCC4)nn3)sc2C1 [2-[6-({[(3-fluoro(2-pyridyl))cyclobutyl]methyl}ami-no)pyridazin-3-yl]-5-(methylsulfonyl)-4,5,6,7-tetrahydro-1,3-thiazolo[5,4-c]pyridine] | – | Mean AC1.4 [2]: D (D=>20 uM) |
| Cc1cc(NCC2(c3ncccc3F)CCC2)nnc1-c1ncc(C(N)=O)s1 [2-[6-({[(3-fluoro(2-pyridyl))cyclobutyl]methyl}amino)-4-methylpyridazin-3-yl]-1,3-thiazole-5-carboxamide] | – | Mean AC1.4 [2]: A (A=<1 uM) |
| Oc1ccc2nc(-c3ccc(NCC4(c5ncccc5F)CCC4)nn3)sc2n1 [2-[6-({[(3-fluoro-2-pyridyl)cyclobutyl]methyl}ami-no)pyridazin-3-yl]-1,3-thiazolino[5,4-b]pyridin-5-ol] | B (B=1-10 uM) | – |
| NC(=O)N1CCc2nc(-c3ccc(NCC4(c5ncccc5F)CCC4)nn3)sc2C1 [2-[6-({[(3-fluoro-2-pyridyl)cyclobutyl]methyl}ami-no)pyridazin-3-yl]-4,5,6,7-tetrahydro-1,3-thiazolo[5,4-c]pyridine-5-carboxamide] | – | Mean AC1.4 [2]: D (D=>20 uM) |

More lines, main results first:

| Mean AC1.4 [1] | SMILES | also measured |
| --- | --- | --- |
| B (B=1-10 uM) | NC(=O)c1cnc(-c2ccc(NC3(c4ncccc4F)CCC3)nn2)s1 [2-(6-{[(3-fluoro-2-pyridyl)cyclobutyl]amino}pyr-idazin-3-yl)-1,3-thiazole-5-carboxamide] | – |
| C (C=10-20 uM) | O=C(c1cnc(-c2ccc(NCC3(c4ncccc4F)CCC3)nn2)s1)N1CCCC(O)C1 (stereo not drawn) [2-[6-({[(3-fluoro(2-pyridyl))cyclobutyl]methyl}ami-no)pyridazin-3-yl](1,3-thiazol-5-yl) 3-hydroxypiperidyl ketone] | – |
| C (C=10-20 uM) | O=C(c1cnc(-c2ccc(NCC3(c4ncccc4F)CCC3)nn2)s1)N1CCC(O)C1 (stereo not drawn) [2-[6-({[(3-fluoro(2-pyridyl))cyclobutyl]methyl}ami-no)pyridazin-3-yl](1,3-thiazol-5-yl) 3-hydroxypyrrolidinyl ketone] | – |
| C (C=10-20 uM) | O=C(c1cnc(-c2ccc(NCC3(c4ncccc4F)CCC3)nn2)s1)N1CCC(O)CC1 [2-[6-({[(3-fluoro(2-pyridyl))cyclobutyl]methyl}ami-no)pyridazin-3-yl](1,3-thiazol-5-yl) 4-hydroxypiperidyl ketone] | – |
| C (C=10-20 uM) | O=C(c1cnc(-c2ccc(NCC3(c4ncccc4F)CCC3)nn2)s1)N1CCOCC1 [2-[6-({[(3-fluoro(2-pyridyl))cyclobutyl]methyl}ami-no)pyridazin-3-yl](1,3-thiazol-5-yl) morpholin-4-yl ketone] | – |
| B (B=1-10 uM) | Cn1c(C(N)=O)cnc1-c1ccc(NCC2(c3ncccc3F)CCC2)nn1 [2-[6-({[(3-fluoro(2-pyridyl))cyclobutyl]methyl}ami-no)pyridazin-3-yl]-1-methylimidazole-5-carboxamide] | – |
| D (D=>20 uM) | N#Cc1sc(-c2ccc(NCC3(c4ncccc4F)CCC3)nn2)nc1O [2-[6-({[(3-fluoro(2-pyridyl))cyclobutyl]methyl}ami-no)pyridazin-3-yl]-4-hydroxy-1,3-thiazole-5-carbonitrile] | – |
| B (B=1-10 uM) | NC(=O)c1sc(-c2ccc(NCC3(c4ncccc4F)CCC3)nn2)nc1O [2-[6-({[(3-fluoro(2-pyridyl))cyclobutyl]methyl}ami-no)pyridazin-3-yl]-4-hydroxy-1,3-thiazole-5-carboxamide] | – |
| A (A=<1 uM) | COc1nc(-c2ccc(NCC3(c4ncccc4F)CCC3)nn2)sc1C(N)=O [2-[6-({[(3-fluoro(2-pyridyl))cyclobutyl]methyl}ami-no)pyridazin-3-yl]-4-methoxy-1,3-thiazole-5-carboxamide] | – |
| C (C=10-20 uM) | COc1nc(-c2ccc(NCC3(c4ncccc4F)CCC3)nn2)sc1C(=O)O [2-[6-({[(3-fluoro(2-pyridyl))cyclobutyl]methyl}ami-no)pyridazin-3-yl]-4-methoxy-1,3-thiazole-5-carboxylic acid] | – |
| B (B=1-10 uM) | Cc1nc(-c2ccc(NCC3(c4ncccc4F)CCC3)nn2)sc1C(N)=O [2-[6-({[(3-fluoro(2-pyridyl))cyclobutyl]methyl}ami-no)pyridazin-3-yl]-4-methyl-1,3-thiazole-5-carboxamide] | – |
| B (B=1-10 uM) | N#Cc1cnc(-c2ccc(NCC3(c4ncccc4F)CCC3)nn2)s1 [2-[6-({[(3-fluoro-2-pyridyl)cyclobutyl]methyl}ami-no)pyridazin-3-yl]-1,3-thiazole-5-carbonitrile] | – |
| C (C=10-20 uM) | O=C(O)c1cnc(-c2ccc(NCC3(c4ncccc4F)CCC3)nn2)s1 [2-[6-({[(3-fluoro-2-pyridyl)cyclobutyl]methyl}ami-no)pyridazin-3-yl]-1,3-thiazole-5-carboxylic acid] | – |
| B (B=1-10 uM) | NS(=O)(=O)c1cnc(-c2ccc(NCC3(c4ncccc4F)CCC3)nn2)s1 [2-[6-({[(3-fluoro-2-pyridyl)cyclobutyl]methyl}ami-no)pyridazin-3-yl]-1,3-thiazole-5-sulfonamide] | – |
| D (D=>20 uM) | NC(=O)c1ccc2nc(-c3ccc(NCC4(c5ncccc5F)CCC4)nn3)sc2n1 [2-[6-({[(3-fluoro-2-pyridyl)cyclobutyl]methyl}ami-no)pyridazin-3-yl]-1,3-thiazolino[5,4-b]pyridine-5-carboxamide] | – |
